# Results from the NIST ThermoML archive (doi:10.1021/je060032n).
# ± gives the expanded uncertainty stated by the source.
# Legend:
# [1] = 101 kPa, Liquid; for viscosity: Capillary tube (Ostwald / Ubbelohde) method
# [2] = refractive index (Na D-line) (dimensionless); settings: 101.33 kPa, Liquid, Standard Abbe refractometry
# [3] = xn = mol fraction of the nth substance listed; settings: 101 kPa, Liquid, x2 = 0; for viscosity: Capillary tube (Ostwald / Ubbelohde) method
# [4] = refractive index (Na D-line) (dimensionless); xn = mol fraction of the nth substance listed; settings: 101 kPa, Liquid, Standard Abbe refractometry, x2 = 0
smiles,measurement,setting,value
NCCNCCO [N-(2-aminoethyl)ethanolamine],mass density,[1]; 298.15 K,1025.28 ± 0.55 kg/m3
same,viscosity,[1]; 298.15 K,98.6 ± 3.2 mPa·s
same,mass density,[1]; 303.15 K,1021.53 ± 0.55 kg/m3
same,viscosity,[1]; 303.15 K,70.5 ± 2.2 mPa·s
same,mass density,[1]; 313.15 K,1014.02 ± 0.54 kg/m3
same,viscosity,[1]; 313.15 K,39.4 ± 1.2 mPa·s
same,mass density,[1]; 323.15 K,1006.44 ± 0.53 kg/m3
same,viscosity,[1]; 323.15 K,23.4 ± 0.7 mPa·s
same,mass density,[1]; 333.15 K,998.83 ± 0.53 kg/m3
same,viscosity,[1]; 333.15 K,14.8 ± 0.5 mPa·s
same,mass density,[1]; 343.15 K,991.15 ± 0.53 kg/m3
same,viscosity,[1]; 343.15 K,10.1 ± 0.3 mPa·s
same,refractive index,[2]; 298.15 K,1.48454 ± 0.00052
same,refractive index,[2]; 303.15 K,1.48269 ± 0.00053
same,refractive index,[2]; 313.15 K,1.47884 ± 0.00053
same,refractive index,[2]; 323.15 K,1.47516 ± 0.00053
same,refractive index,[2]; 333.15 K,1.47128 ± 0.00054
O [water] + NCCNCCO,viscosity,[3]; 298.15 K,0.882 ± 0.027 mPa·s
same,viscosity,[3]; 303.15 K,0.804 ± 0.025 mPa·s
same,viscosity,[3]; 313.15 K,0.659 ± 0.02 mPa·s
same,viscosity,[3]; 323.15 K,0.551 ± 0.017 mPa·s
same,mass density,[3]; 323.15 K,988.03 ± 0.19 kg/m3
same,viscosity,[3]; 333.15 K,0.47 ± 0.014 mPa·s
same,mass density,[3]; 333.15 K,983.19 ± 0.2 kg/m3
same,viscosity,[3]; 343.15 K,0.407 ± 0.013 mPa·s
same,mass density,[3]; 343.15 K,977.75 ± 0.2 kg/m3
same,refractive index,[4]; 298.15 K,1.33258 ± 0.00033
same,refractive index,[4]; 303.15 K,1.33202 ± 0.00034
same,refractive index,[4]; 313.15 K,1.33067 ± 0.00035
same,refractive index,[4]; 323.15 K,1.32909 ± 0.00035
same,refractive index,[4]; 333.15 K,1.3273 ± 0.00036
